Reference: US12139492B2 (Endotarget Inc., priority 2021, dated 2024)
pIC50: −log10 of the molar value.

What was measured:
Mino cells = test: Antiproliferative effect, MTS cell viability assay, Mino cells; format: cell-based; conditions: Homo sapiens, MINO, Mino mantle cell lymphoma cells; read-out: IC50 (anti-proliferation) Mino cells
How it was run: (§1)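 Cells were exposed to compound at 0, 0.001, 0.01, 0.1, 1 and 10 μM for 72 h. Viability was then measured by MTS assay, reading formazan produced by metabolically active cells as absorbance at 490 nm.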

JeKo-1 cells = test: Antiproliferative effect, MTS cell viability assay, JeKo-1 cells; format: cell-based; conditions: Homo sapiens; JeKo-1 mantle cell lymphoma cells; read-out: IC50 (anti-proliferation) JeKO-1 cells
How it was run: as §1

BTK = BTK (Homo sapiens, UniProt Q06187); test: Degradation of BTK protein in Namalwa cells (Western blot; DC50, Dmax); conditions: for DC50: BTK degradation, cell line not given
BTK, sequence (Q06187 whole entry): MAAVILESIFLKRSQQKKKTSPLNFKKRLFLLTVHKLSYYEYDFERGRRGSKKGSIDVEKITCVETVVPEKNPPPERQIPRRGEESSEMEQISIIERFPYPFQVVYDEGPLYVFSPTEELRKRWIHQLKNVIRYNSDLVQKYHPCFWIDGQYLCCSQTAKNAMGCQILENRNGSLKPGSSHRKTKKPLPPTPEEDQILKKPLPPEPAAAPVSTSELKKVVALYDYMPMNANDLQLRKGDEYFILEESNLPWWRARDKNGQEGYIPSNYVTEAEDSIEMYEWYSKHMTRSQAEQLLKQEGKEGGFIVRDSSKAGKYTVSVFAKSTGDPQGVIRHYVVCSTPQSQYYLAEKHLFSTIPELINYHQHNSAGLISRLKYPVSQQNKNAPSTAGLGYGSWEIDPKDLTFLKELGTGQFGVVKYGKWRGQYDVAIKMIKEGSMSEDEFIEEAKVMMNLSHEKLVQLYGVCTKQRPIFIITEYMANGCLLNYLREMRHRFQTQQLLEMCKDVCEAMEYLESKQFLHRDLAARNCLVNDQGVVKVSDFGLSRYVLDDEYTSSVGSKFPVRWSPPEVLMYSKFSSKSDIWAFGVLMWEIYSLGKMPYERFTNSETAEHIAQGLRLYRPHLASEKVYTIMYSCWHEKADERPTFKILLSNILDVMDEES

Dmax (BTK) [%]	DC50 (BTK) [µM]	Compound	pIC50 (Mino cells)	pIC50 (JeKo-1 cells)
> 75	0.01 to 0.05	NC(=O)c1c(-c2ccc(Oc3ccccc3)cc2)nn2c1NCC[C@H]2C1CCN(CC2CCN(CC3CCN(c4ccc5c(c4)CN(C4CCC(=O)NC4=O)C5=O)CC3)CC2)CC1 (stereo partly drawn) [Compound 330, (7S)-7-(1-((1-((1-(2-(2,6-dioxopiperidin-3-yl)-1-oxoisoindolin-5-yl)piperidin-4-yl)methyl)piperidin-4-yl)methyl)piperidin-4-yl)-2-(4-phenoxyphenyl)-4,5,6,7-tetrahydropyrazolo[1,5-a]pyrimidine-3-carboxamide]	5.00 to 6.00	5.00 to 6.00
> 75	> 0.05	NC(=O)c1c(-c2ccc(Oc3ccccc3)cc2)nn2c1NCC[C@H]2C1CCN(CC2CCN(CCN3CCN(c4ccc5c(c4)C(=O)N(C4CCC(=O)NC4=O)C5=O)CC3)CC2)CC1 (stereo partly drawn) [Compound 331, (7S)-7-(1-((1-(2-(4-(2-(2,6-dioxopiperidin-3-yl)-1,3-dioxoisoindolin-5-yl)piperazin-1-yl)ethyl)piperidin-4-yl)methyl)piperidin-4-yl)-2-(4-phenoxyphenyl)-4,5,6,7-tetrahydropyrazolo[1,5-a]pyrimidine-3-carboxamide]	< 5.00	5.00 to 6.00
> 75	> 0.05	NC(=O)c1c(-c2ccc(Oc3ccccc3)cc2)nn2c1NCC[C@H]2C1CCN(CC2CCN(CCN3CCN(c4ccc5c(c4)CN(C4CCC(=O)NC4=O)C5=O)CC3)CC2)CC1 (stereo partly drawn) [Compound 332, (7S)-7-(1-((1-(2-(4-(2-(2,6-dioxopiperidin-3-yl)-1-oxoisoindolin-5-yl)piperazin-1-yl)ethyl)piperidin-4-yl)methyl)piperidin-4-yl)-2-(4-phenoxyphenyl)-4,5,6,7-tetrahydropyrazolo[1,5-a]pyrimidine-3-carboxamide]	5.00 to 6.00	5.00 to 6.00
> 75	0.01 to 0.05	NC(=O)c1c(-c2ccc(Oc3ccccc3)cc2)nn2c1NCC[C@H]2C1CCN(CC2CCN(CCC3CCN(c4ccc5c(c4)C(=O)N(C4CCC(=O)NC4=O)C5=O)CC3)CC2)CC1 (stereo partly drawn) [Compound 333, (7S)-7-(1-((1-(2-(1-(2-(2,6-dioxopiperidin-3-yl)-1,3-dioxoisoindolin-5-yl)piperidin-4-yl)ethyl)piperidin-4-yl)methyl)piperidin-4-yl)-2-(4-phenoxyphenyl)-4,5,6,7-tetrahydropyrazolo[1,5-a]pyrimidine-3-carboxamide]	5.00 to 6.00	< 5.00
> 75	0.01 to 0.05	NC(=O)c1c(-c2ccc(Oc3ccccc3)cc2)nn2c1NCC[C@H]2C1CCN(CC2CCN(CCC3CCN(c4ccc5c(c4)CN(C4CCC(=O)NC4=O)C5=O)CC3)CC2)CC1 (stereo partly drawn) [Compound 334, (7S)-7-(1-((1-(2-(1-(2-(2,6-dioxopiperidin-3-yl)-1-oxoisoindolin-5-yl)piperidin-4-yl)ethyl)piperidin-4-yl)methyl)piperidin-4-yl)-2-(4-phenoxyphenyl)-4,5,6,7-tetrahydropyrazolo[1,5-a]pyrimidine-3-carboxamide]	< 5.00	< 5.00
> 75	> 0.05	NC(=O)c1c(-c2ccc(Oc3ccccc3)cc2)nn2c1NCC[C@H]2C1CCN(CC2CCN(CCN3CCC(c4ccc5c(c4)C(=O)N(C4CCC(=O)NC4=O)C5=O)CC3)CC2)CC1 (stereo partly drawn) [Compound 335, (7S)-7-(1-((1-(2-(4-(2-(2,6-dioxopiperidin-3-yl)-1,3-dioxoisoindolin-5-yl)piperidin-1-yl)ethyl)piperidin-4-yl)methyl)piperidin-4-yl)-2-(4-phenoxyphenyl)-4,5,6,7-tetrahydropyrazolo[1,5-a]pyrimidine-3-carboxamide]	5.00 to 6.00	5.00 to 6.00
> 75	0.01 to 0.05	NC(=O)c1c(-c2ccc(Oc3ccccc3)cc2)nn2c1NCC[C@H]2C1CCN(CC2CCN(CCN3CCC(c4ccc5c(c4)CN(C4CCC(=O)NC4=O)C5=O)CC3)CC2)CC1 (stereo partly drawn) [Compound 336, (7S)-7-(1-((1-(2-(4-(2-(2,6-dioxopiperidin-3-yl)-1-oxoisoindolin-5-yl)piperidin-1-yl)ethyl)piperidin-4-yl)methyl)piperidin-4-yl)-2-(4-phenoxyphenyl)-4,5,6,7-tetrahydropyrazolo[1,5-a]pyrimidine-3-carboxamide]	5.00 to 6.00	5.00 to 6.00
> 50	> 0.05	NC(=O)c1c(-c2ccc(Oc3ccccc3)cc2)nn2c1NCCC2C1CCN(C2CCN(C(=O)N3CCN(c4ccc5c(c4)C(=O)N(C4CCC(=O)NC4=O)C5=O)CC3)CC2)CC1 (stereo not shown) [Compound 337, 7-(1′-(4-(2-(2,6-dioxopiperidin-3-yl)-1,3-dioxoisoindolin-5-yl)piperazine-1-carbonyl)-[1,4′-bipiperidin]-4-yl)-2-(4-phenoxyphenyl)-4,5,6,7-tetrahydropyrazolo[1,5-a]pyrimidine-3-carboxamide]	< 5.00	5.00 to 6.00
> 50	> 0.05	NC(=O)c1c(-c2ccc(Oc3ccccc3)cc2)nn2c1NCCC2C1CCN(C2CCN(C(=O)N3CCN(c4ccc5c(c4)CN(C4CCC(=O)NC4=O)C5=O)CC3)CC2)CC1 (stereo not shown) [Compound 338, 7-(1′-(4-(2-(2,6-dioxopiperidin-3-yl)-1-oxoisoindolin-5-yl)piperazine-1-carbonyl)-[1,4′-bipiperidin]-4-yl)-2-(4-phenoxyphenyl)-4,5,6,7-tetrahydropyrazolo[1,5-a]pyrimidine-3-carboxamide]	5.00 to 6.00	< 5.00
> 50	> 0.05	NC(=O)c1c(-c2ccc(Oc3ccccc3)cc2)nn2c1NCCC2C1CCN(C2CCN(C(=O)N3CCN(Cc4ccc5c(c4)C(=O)N(C4CCC(=O)NC4=O)C5=O)CC3)CC2)CC1 (stereo not shown) [Compound 339, 7-(1′-(4-((2-(2,6-dioxopiperidin-3-yl)-1,3-dioxoisoindolin-5-yl)methyl)piperazine-1-carbonyl)-[1,4′-bipiperidin]-4-yl)-2-(4-phenoxyphenyl)-4,5,6,7-tetrahydropyrazolo[1,5-a]pyrimidine-3-carboxamide]	< 5.00	< 5.00
> 50	> 0.05	NC(=O)c1c(-c2ccc(Oc3ccccc3)cc2)nn2c1NCCC2C1CCN(C2CCN(C(=O)N3CCN(Cc4ccc5c(c4)CN(C4CCC(=O)NC4=O)C5=O)CC3)CC2)CC1 (stereo not shown) [Compound 340, 7-(1′-(4-((2-(2,6-dioxopiperidin-3-yl)-1-oxoisoindolin-5-yl)methyl)piperazine-1-carbonyl)-[1,4′-bipiperidin]-4-yl)-2-(4-phenoxyphenyl)-4,5,6,7-tetrahydropyrazolo[1,5-a]pyrimidine-3-carboxamide]	< 5.00	< 5.00
> 90	0.01 to 0.05	NC(=O)c1c(-c2ccc(Oc3ccccc3)cc2)nn2c1NCCC2C1CCN(C2CCN(C(=O)N3CCC(N4CCN(c5ccc6c(c5)C(=O)N(C5CCC(=O)NC5=O)C6=O)CC4)CC3)CC2)CC1 (stereo not shown) [Compound 341, 7-(1′-(4-(4-(2-(2,6-dioxopiperidin-3-yl)-1,3-dioxoisoindolin-5-yl)piperazin-1-yl)piperidine-1-carbonyl)-[1,4′-bipiperidin]-4-yl)-2-(4-phenoxyphenyl)-4,5,6,7-tetrahydropyrazolo[1,5-a]pyrimidine-3-carboxamide]	5.00 to 6.00	> 6.00
> 90	< 0.01	NC(=O)c1c(-c2ccc(Oc3ccccc3)cc2)nn2c1NCCC2C1CCN(C2CCN(C(=O)N3CCC(N4CCN(c5ccc6c(c5)CN(C5CCC(=O)NC5=O)C6=O)CC4)CC3)CC2)CC1 (stereo not shown) [Compound 342, 7-(1′-(4-(4-(2-(2,6-dioxopiperidin-3-yl)-1-oxoisoindolin-5-yl)piperazin-1-yl)piperidine-1-carbonyl)-[1,4′-bipiperidin]-4-yl)-2-(4-phenoxyphenyl)-4,5,6,7-tetrahydropyrazolo[1,5-a]pyrimidine-3-carboxamide]	> 6.00	> 6.00
> 90	< 0.01	NC(=O)c1c(-c2ccc(Oc3ccccc3)cc2)nn2c1NCCC2C1CCN(C2CCN(C(=O)N3CCC(C4CCN(c5ccc6c(c5)C(=O)N(C5CCC(=O)NC5=O)C6=O)CC4)CC3)CC2)CC1 (stereo not shown) [Compound 343, 7-(1′-(1′-(2-(2,6-dioxopiperidin-3-yl)-1,3-dioxoisoindolin-5-yl)-[4,4′-bipiperidine]-1-carbonyl)-[1,4′-bipiperidin]-4-yl)-2-(4-phenoxyphenyl)-4,5,6,7-tetrahydropyrazolo[1,5-a]pyrimidine-3-carboxamide]	5.00 to 6.00	> 6.00
> 90	< 0.01	NC(=O)c1c(-c2ccc(Oc3ccccc3)cc2)nn2c1NCCC2C1CCN(C2CCN(C(=O)N3CCC(C4CCN(c5ccc6c(c5)CN(C5CCC(=O)NC5=O)C6=O)CC4)CC3)CC2)CC1 (stereo not shown) [Compound 344, 7-(1′-(1′-(2-(2,6-dioxopiperidin-3-yl)-1-oxoisoindolin-5-yl)-[4,4′-bipiperidine]-1-carbonyl)-[1,4′-bipiperidin]-4-yl)-2-(4-phenoxyphenyl)-4,5,6,7-tetrahydropyrazolo[1,5-a]pyrimidine-3-carboxamide]	5.00 to 6.00	> 6.00
> 90	< 0.01	NC(=O)c1c(-c2ccc(Oc3ccccc3)cc2)nn2c1NCCC2C1CCN(C2CCN(C(=O)N3CCN(C4CCN(c5ccc6c(c5)C(=O)N(C5CCC(=O)NC5=O)C6=O)CC4)CC3)CC2)CC1 (stereo not shown) [Compound 345, 7-(1′-(4-(1-(2-(2,6-dioxopiperidin-3-yl)-1,3-dioxoisoindolin-5-yl)piperidin-4-yl)piperazine-1-carbonyl)-[1,4′-bipiperidin]-4-yl)-2-(4-phenoxyphenyl)-4,5,6,7-tetrahydropyrazolo[1,5-a]pyrimidine-3-carboxamide]	5.00 to 6.00	5.00 to 6.00
